Patent publication US11578055B2, “Triazacyclododecansulfonamide (“TCD”)-based protein secretion inhibitors” (KEZAR LIFE SCIENCES, priority 2018, dated 2023)
Like-named read-outs stand apart in the source and are kept apart here.

Tests used:
[1] = system: PD1 signal sequence plus 10 amino acids fused to Gaussia Luciferase (PD1-ss+10aa/Gaussia Luciferase); experiment: Dox Induced PD1-ss-Gluc Assay; type: cell-based; details: 24 hr, read-out: 24 hr Dox Inducible PD1ssGluc 293FRT/TO: Mean IC50
Procedure, shortened: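 Compound dilutions in DMSO/media containing doxycycline were applied to a stable, inducible 293 T-REx line carrying the luciferase fusion, then incubated at 37 °C, 5% CO2. Where stereochemistry is not drawn, values relate to isomer mixtures.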

[2] = system: full length TNFα (amino acids 1-233) fused to Gaussia Luciferase; experiment: Dox Induced TNFα-FL-Gluc Assay; type: cell-based; details: 24 hr, read-out: 24 hr Dox Inducible TNFaFLGluc 293FRT/TO: Mean IC50
Procedure, shortened: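 Compounds diluted in DMSO/medium with doxycycline were incubated at 37° C, 5% CO2 with 293 T-REx cells stably carrying a Tet-regulated TNFα(1-233)-Gaussia luciferase construct. Data for structures drawn without stereochemistry refer to stereoisomer mixtures.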

[3] = system: full length IL-2 (amino acids 1-153) fused to Gaussia Luciferase; experiment: Dox Induced IL2-FL-Gluc Assay; type: cell-based; details: 24 hr, read-out: 24 hr Dox Inducible IL2FLGluc 293FRT/TO: Mean IC50
Procedure, shortened: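 Compounds in DMSO/media with doxycycline were added to cells plated the previous day and incubated at 37° C, 5% CO2. Cells: stable Flp-In 293 T-REx line, Dox-regulated expression of IL-2 (aa 1-153) fused at its C-terminus to Gaussia luciferase.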

[4] = system: multiple myeloma cell line NCl-H929; experiment: H929 Cell Viability Assay; type: cell-based, human; details: Homo sapiens, NCI-H929, 48 h
Procedure, shortened: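 Viability was determined by CellTiter-Glo luminescence after a 48 h, 37 °C exposure of NCI-H929 cells to serial compound dilutions in medium containing 10% FBS. Where stereochemistry is not shown, values refer to a mix of stereoisomers.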

[5] = system: multiple myeloma cell line U266B1; experiment: U266 Cell Viability Assay; type: cell-based, human; details: Homo sapiens, U-266, 48 hr
Procedure, shortened: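 Viability was measured by CellTiter-Glo luminescence after 48 h compound exposure at 37° C, 5% CO2. The cells were U266B1 multiple myeloma cells grown in RPMI 1640 plus 10% FBS. Where stereochemistry is not shown, values apply to the stereoisomer mixture.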

[6] = In Vitro Microsome Stability Assay (human); type: in vitro ADME
Procedure, shortened: (§1)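 Species liver microsomes in potassium phosphate buffer were preincubated at 37 °C for 3–5 min with test compound (added from 0.25 mM DMSO stock), then started with NADPH. Samples at 0 and 30 min were quenched with acetonitrile containing internal standard and analysed by LC-MS/MS; % remaining at 30 min used analyte/IS AUC ratios relative to t=0.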

[7] = In Vitro Microsome Stability Assay (mouse); type: in vitro ADME
Procedure, shortened: as §1

[8] = In Vitro Microsome Stability Assay (rat); type: in vitro ADME
Procedure, shortened: as §1

[9] = In Vitro Microsome Stability Assay (monkey); type: in vitro ADME
Procedure, shortened: as §1

[10] = human liver microsomes, 30 min w/ NADPH
[11] = mouse liver microsomes, 30 min w/ NADPH
[12] = rat liver microsomes, 30 min w/ NADPH
[13] = monkey liver microsomes, 30 min w/ NADPH
[14] = H929, read-out: 48 hr H929 Viability Celltiter-Glo: Mean EC50
[15] = U266, read-out: 48 hr U266 Viability Celltiter-Glo: Mean EC50

IC50 ([1]; Dox inducible, 293FRT/TO cells)	IC50 ([2]; Dox inducible, 293FRT/TO cells)	IC50 ([3]; Dox inducible, 293FRT/TO cells)	EC50 ([4]; H929, Celltiter-Glo)	EC50 ([5]; U266, Celltiter-Glo)	Liver Microsome Stability-% Left after 30 min w/ NADPH (%) Human [6, 10]	Liver Microsome Stability-% Left after 30 min w/ NADPH (%) Mouse [7, 11]	Liver Microsome Stability-% Left after 30 min w/ NADPH (%) Rat [8, 12]	Liver Microsome Stability-% Left after 30 min w/ NADPH (%) Monkey [9, 13]	IC50 ([1]; 293FRT/TO)	IC50 ([2]; 293FRT/TO)	IC50 ([3]; 293FRT/TO)	EC50 [4, 14]	EC50 [5, 15]	Liver Microsome Stability-% Left after 30 min w/ NADPH (%) Human ([6]; human, 30 min, NADPH)	Liver Microsome Stability-% Left after 30 min w/ NADPH (%) Mouse ([7]; mouse, 30 min, NADPH)	Liver Microsome Stability-% Left after 30 min w/ NADPH (%) Rat ([8]; rat, 30 min, NADPH)	Liver Microsome Stability-% Left after 30 min w/ NADPH (%) Monkey ([9]; monkey, 30 min, NADPH)	Structure (SMILES)
78.8 nM	5640 nM	248 nM	> 25000 nM	> 25000 nM	56.1%	49.2%	53.8%	55.9%	–	–	–	–	–	–	–	–	–	C[C@H]1CN(S(=O)(=O)c2ccc(N(C)C)cc2)CCCN(CC2CCCCC2)CCCN(S(=O)(=O)N2CCN(c3ccccc3OC(F)(F)F)CC2)C1 [A173, 4-{[(3S)-9-(cyclohexylmethyl)-3-methyl-5-({4-[2-(trifluoromethoxy)phenyl]piperazin-1-yl}sulfonyl)-1,5,9-triazacyclododecan-1-yl]sulfonyl}-N,N-dimethylaniline]
–	–	–	–	–	–	–	–	–	122 nM	1850 nM	232 nM	5100 nM	> 25000 nM	40.5%	37.6%	41.9%	32.8%	C[C@H]1CN(S(=O)(=O)c2ccc(N(C)C)cc2)CCCN(CC2CCCCC2)CCCN(S(=O)(=O)N2CCN(c3ccc(F)cc3)CC2)C1 [A96, 4-{[(3S)-9-(cyclohexylmethyl)-5-{[4-(4-fluorophenyl)piperazin-1-yl]sulfonyl}-3-methyl-1,5,9-triazacyclododecan-1-yl]sulfonyl}-N,N-dimethylaniline]
492 nM	3010 nM	808 nM	> 25000 nM	> 25000 nM	0.41%	3.68%	0.56%	1.56%	–	–	–	–	–	–	–	–	–	COCCN1CCCN(S(=O)(=O)c2ccc(N(C)C)cc2)C[C@H](C)CN(S(=O)(=O)N2CCc3cc(Cl)ccc3C2)CCC1 [A140, 4-{[(3S)-5-[(6-chloro-1,2,3,4-tetrahydroisoquinolin-2-yl)sulfonyl]-9-(2-methoxyethyl)-3-methyl-1,5,9-triazacyclododecan-1-yl]sulfonyl}-N,N-dimethylaniline]
11 nM	309 nM	27.3 nM	541 nM	> 25000 nM	31.9%	27.9%	41.3%	9.76%	–	–	–	–	–	–	–	–	–	C[C@H]1CN(S(=O)(=O)c2ccc(N(C)C)cc2)CCCN(CCC2CCCCC2)CCCN(S(=O)(=O)N2CCc3cc(Cl)ccc3C2)C1 [A134, 4-{[(3S)-5-[(6-chloro-1,2,3,4-tetrahydroisoquinolin-2-yl)sulfonyl]-9-(2-cyclohexylethyl)-3-methyl-1,5,9-triazacyclododecan-1-yl]sulfonyl}-N,N-dimethylaniline]
26.5 nM	544 nM	101 nM	1730 nM	> 25000 nM	65.3%	14.3%	26.6%	23.2%	–	–	–	–	–	–	–	–	–	CCc1ccc2c(c1)CCN(S(=O)(=O)N1CCCN(CC3CCCCC3)CCCN(S(=O)(=O)c3ccc(N(C)C)cc3)C[C@H](C)C1)C2 [A136, 4-{[(3S)-9-(cyclohexylmethyl)-5-[(6-ethyl-1,2,3,4-tetrahydroisoquinolin-2-yl)sulfonyl]-3-methyl-1,5,9-triazacyclododecan-1-yl]sulfonyl}-N,N-dimethylaniline]
1150 nM	> 25000 nM	1560 nM	> 25000 nM	> 25000 nM	0.22%	0.1%	2.18%	0.04%	–	–	–	–	–	–	–	–	–	C[C@H]1CN(S(=O)(=O)c2ccc(N(C)C)cc2)CCCN(CC2CCCCC2)CCCN(S(=O)(=O)N2CCN(C(=O)c3ccccc3)CC2)C1 [A100, 4-{[(3S)-5-[(4-benzoylpiperazin-1-yl)sulfonyl]-9-(cyclohexylmethyl)-3-methyl-1,5,9-triazacyclododecan-1-yl]sulfonyl}-N,N-dimethylaniline]

More lines, now with the values behind:

Structure (SMILES)	IC50 ([1]; Dox inducible, 293FRT/TO cells)	IC50 ([2]; Dox inducible, 293FRT/TO cells)	IC50 ([3]; Dox inducible, 293FRT/TO cells)	EC50 ([4]; H929, Celltiter-Glo)	EC50 ([5]; U266, Celltiter-Glo)	Liver Microsome Stability-% Left after 30 min w/ NADPH (%) Human [6, 10]	Liver Microsome Stability-% Left after 30 min w/ NADPH (%) Mouse [7, 11]	Liver Microsome Stability-% Left after 30 min w/ NADPH (%) Rat [8, 12]	Liver Microsome Stability-% Left after 30 min w/ NADPH (%) Monkey [9, 13]	IC50 ([1]; 293FRT/TO)	IC50 ([2]; 293FRT/TO)	IC50 ([3]; 293FRT/TO)	EC50 [4, 14]	EC50 [5, 15]	Liver Microsome Stability-% Left after 30 min w/ NADPH (%) Human ([6]; human, 30 min, NADPH)	Liver Microsome Stability-% Left after 30 min w/ NADPH (%) Mouse ([7]; mouse, 30 min, NADPH)	Liver Microsome Stability-% Left after 30 min w/ NADPH (%) Rat ([8]; rat, 30 min, NADPH)	Liver Microsome Stability-% Left after 30 min w/ NADPH (%) Monkey ([9]; monkey, 30 min, NADPH)
C[C@H]1CN(S(=O)(=O)c2ccc(N(C)C)cc2)CCCN(CCC(F)(F)F)CCCN(S(=O)(=O)N2CCc3cc(Cl)ccc3C2)C1 [A165, 4-{[(3S)-5-[(6-chloro-1,2,3,4-tetrahydroisoquinolin-2-yl)sulfonyl]-3-methyl-9-(3,3,3-trifluoropropyl)-1,5,9-triazacyclododecan-1-yl]sulfonyl}-N,N-dimethylaniline]	131 nM	1860 nM	294 nM	4090 nM	> 25000 nM	2.23%	14.9%	11.9%	12.8%	–	–	–	–	–	–	–	–	–
C=C1CN(S(=O)(=O)c2ccc(N(C)C)cc2)CCCN(CC2CCCCC2)CCCN(S(=O)(=O)N2Cc3ccc(Cl)cc3C2)C1 [A89, 4-({5-[(5-chloro-2,3-dihydro-1H-isoindo1-2-yl)sulfonyl]-9-(cyclohexylmethyl)-3-methylidene-1,5,9-triazacyclododecan-1-yl}sulfonyl)-N,N-dimethylaniline]	–	–	–	–	–	–	–	–	–	82 nM	1210 nM	187 nM	1750 nM	> 25000 nM	18.5%	17.1%	22.2%	13.5%
C[C@H]1CN(S(=O)(=O)c2ccc(N(C)C)cc2)CCCN(CC2CCCCC2)CCCN(S(=O)(=O)N2CCN(c3ccccc3C#N)CC2)C1 [A118, 2-(4-{[(3S)-9-(cyclohexylmethyl)-5-[4-(dimethylamino)benzenesulfonyl]-3-methyl-1,5,9-triazacyclododecan-1-yl]sulfonyl}piperazin-1-yl)benzonitrile]	67.8 nM	2090 nM	173 nM	5350 nM	> 25000 nM	14.2%	22.1%	18.3%	14.7%	–	–	–	–	–	–	–	–	–
C[C@H]1CN(S(=O)(=O)c2ccc(N(C)C)cc2)CCCCN(S(=O)(=O)N2CCc3cc(Cl)ccc3C2)C1 [B21]	3950 nM	> 25000 nM	> 25000 nM	> 25000 nM	> 25000 nM	0.17%	0.16%	0.06%	0.03%	–	–	–	–	–	–	–	–	–
